From article PMC10484922, “Discovery of a selective and biologically active low-molecular weight antagonist of human interleukin-1β” (Nature Communications, 2023)

Legend:
[1] = tested on: HEK-Blue IL-1β cells stimulated with hIL-1β; experiment: HEK293 reporter gene assay, hIL-1β as trigger; assay type: cell-based, human
Experimental: (§1) We used HEK-Blue™ IL-1β cells that respond specifically to IL-1 (# hkb-il1b, InvivoGen). These cells can detect IL-1α and IL-1β, as these cytokines bind to the same receptor, IL-1R1. They express a Seap reporter gene under the control of the IFN-β minimal promoter fused to five NF-kappaB and five AP-1 binding sites. Thirty microliters (300,000 cells/ml) per well of a 384-well plate were plated overnight. Cells were then stimulated with graded concentrations of cytokines (hIL-1α or hIL-1β) in the absence or presence of canakinumab (Ilaris®, ILARI LYVI 150MG 22GLW.012, batch U003 0409)[22], anakinra (Kineret®, 100 mg/0.67 ml injectable solution, Sobi)[23], or compound (S)-2 (compounds were pre-mixed for 1 h with the cytokine prior to addition to cells) and further incubated overnight before assessment of Seap activity.

[2] = tested on: HEK-Blue IL-1β cells stimulated with hIL-1α; experiment: HEK293 reporter gene assay, hIL-1α as trigger; assay type: cell-based, human
Experimental: as §1

IL-1β = IL-1β (Homo sapiens, UniProt P01584); experiment: protein-observed 1H-13C-HMQC NMR binding (I/Io of Leu60 Cδ1H3); design: Mature hIL-1β was expressed in Escherichia coli; made in house; host or cells: Escherichia coli BL21 (DE3), pET17b
Experimental: ^1H–^13C- and ^1H–^15N-HMQC spectra were recorded on Bruker AVANCE 600 MHz and 800 MHz spectrometers equipped with TXI-cryocooled probeheads. In ligand binding experiments, protein concentrations were typically 50 μM in PBS, pH 7.4. Backbone assignments of hIL-1β in the ligand-bound state and unliganded state were obtained by a combination of a 3D triple resonance experiment HNCACB and a ^15N-edited NOESY spectrum, which were processed using TOPSPIN 3.2 and analyzed using CcpNmr AnalysisAssign 3.1.0[46]. ^15N-CEST experiments were run at weak B1 radiofrequency fields of 25 and 12.5 Hz on a Bruker AVANCE 800 MHz spectrometer with 113 increments and a total sweep width of 28 ppm in the pseudo-3D dimension. Peak intensities were extracted by fitting pseudo-Voigt lineshape models using peakipy (https://github.com/j-brady/peakipy). Fitted peak intensities were subsequently used to generate CEST profiles, and exchange parameters were fitted using ChemEx (https://github.com/gbouvignies/ChemEx).
Supplementary Figure 2. 13C-NMR and 19F-NMR reporter assays to monitor early
13C-HMQC spectra of hIL-1b (50 µM) were acquired in the presence (red) and absence (blue) of 500
µM compound and rows were extracted at the w1-frequency of the peak corresponding to Leu60 […]

[3] = tested on: normal human dermal fibroblasts stimulated with hIL-1α; experiment: Human fibroblast IL-6 release assay, hIL-1α stimulated; assay type: cell-based; design: IL-1alpha (mean, SD): mean readout (IL-6 release): unit not given here; conditions: for Mean OD (OD 450nm) / IL-1alpha (mean, SD): mean readout (IL-6 release): Figure 3c; for Mean OD (OD 450nm): compound 1 nM; for IL-1alpha (mean, SD): mean readout (IL-6 release): compound @ 1nM
Experimental: as §1
(§2) Normal human dermal fibroblasts (NHDF) from Clonetics^TM (LONZA, Cat # CC-2509 (NHDF-Neo), Lot # 0000234242, used at passage ≤14) were seeded at a density of 5000 cells/well in 100 μL of culture medium using 96-well plates (flat bottom, TCT). Treatment with cytokines/compounds was performed as described above. Cells were incubated for another 6 h and were subsequently spun down (320g/3 min). IL-6 was measured in the supernatant by ELISA (BioLegend, # 430503) or HTRF (Cisbio, #62HIL06PEH).

[4] = tested on: normal human dermal fibroblasts stimulated with hIL-1β; experiment: Human fibroblast IL-6 release assay, hIL-1β stimulated; assay type: cell-based; design: IL-6, average / inhibition, replicates of EXP1, EXP2, EXP3 / inhibition, Mean / IL-1beta (mean, SD): mean readout (IL-6 release): unit not given here; conditions: for Mean OD (OD 450nm) / IL-1beta (mean, SD): mean readout (IL-6 release): Figure 3c; for Mean OD (OD 450nm): compound 1 nM; for IL-1beta (mean, SD): mean readout (IL-6 release): compound @ 1nM
Experimental: as §1, §2

Chain of IL-1β (P01584 117-269): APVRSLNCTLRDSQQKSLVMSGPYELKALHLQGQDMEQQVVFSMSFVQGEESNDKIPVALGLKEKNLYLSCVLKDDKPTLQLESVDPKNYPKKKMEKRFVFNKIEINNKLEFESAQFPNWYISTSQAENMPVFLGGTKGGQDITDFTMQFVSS

Cc1ccc2c(c1)NC(=O)[C@@]2(c1cn[nH]c1)c1cc(-c2ccc(C(=O)O)cc2C(=O)O)ccc1O [(S) 2]
reporter gene assay signal, mean (Figure 3d) ([1]; IL-1beta 3.04596 pg/ml, inhibitor 50uM): 0.06
reporter gene assay signal, mean (Figure 3d) ([1]; IL-1beta 6.09192 pg/ml, inhibitor 50uM): 0.06
reporter gene assay signal, mean (Figure 3d) ([1]; IL-1beta 12.1838 pg/ml, inhibitor 50uM): 0.06
reporter gene assay signal, mean (Figure 3d) ([1]; IL-1beta 24.3677 pg/ml, inhibitor 50uM): 0.08
reporter gene assay signal, mean (Figure 3d) ([1]; IL-1beta 48.7353 pg/ml, inhibitor 50uM): 0.1
reporter gene assay signal, mean (Figure 3d) ([1]; IL-1beta 97.4707 pg/ml, inhibitor 50uM): 0.17
reporter gene assay signal, mean (Figure 3d) ([1]; IL-1beta 194.941 pg/ml, inhibitor 50uM): 0.41
reporter gene assay signal, mean (Figure 3d) ([1]; IL-1beta 389.883 pg/ml, inhibitor 50uM): 0.84
reporter gene assay signal, mean (Figure 3d) ([1]; IL-1beta 779.766 pg/ml, inhibitor 50uM): 1.26
reporter gene assay signal, mean (Figure 3d) ([1]; IL-1beta 1559.53 pg/ml, inhibitor 50uM): 1.6
reporter gene assay signal, mean (Figure 3d) ([1]; IL-1beta 3119.06 pg/ml, inhibitor 50uM): 1.74
reporter gene assay signal, mean (Figure 3d) ([1]; IL-1beta 6238.12 pg/ml, inhibitor 50uM): 1.87
reporter gene assay signal, mean (Figure 3d) ([1]; IL-1beta 12476.2 pg/ml, inhibitor 50uM): 1.96
reporter gene assay signal, mean (Figure 3d) ([1]; IL-1beta 24952.5 pg/ml, inhibitor 50uM): 2.06
reporter gene assay signal, mean (Figure 3d) ([1]; IL-1beta 49905 pg/ml, inhibitor 50uM): 2.02
reporter gene assay signal, mean (Figure 3d) ([2]; IL-1alpha 3.04596 pg/ml, inhibitor 50uM): 0.08
reporter gene assay signal, mean (Figure 3d) ([2]; IL-1alpha 6.09192 pg/ml, inhibitor 50uM): 0.1
reporter gene assay signal, mean (Figure 3d) ([2]; IL-1alpha 12.1838 pg/ml, inhibitor 50uM): 0.15
reporter gene assay signal, mean (Figure 3d) ([2]; IL-1alpha 24.3677 pg/ml, inhibitor 50uM): 0.1
reporter gene assay signal, mean (Figure 3d) ([2]; IL-1alpha 48.7353 pg/ml, inhibitor 50uM): 0.59
reporter gene assay signal, mean (Figure 3d) ([2]; IL-1alpha 97.4707 pg/ml, inhibitor 50uM): 1.08
reporter gene assay signal, mean (Figure 3d) ([2]; IL-1alpha 194.941 pg/ml, inhibitor 50uM): 1.42
reporter gene assay signal, mean (Figure 3d) ([2]; IL-1alpha 389.883 pg/ml, inhibitor 50uM): 1.67
reporter gene assay signal, mean (Figure 3d) ([2]; IL-1alpha 779.766 pg/ml, inhibitor 50uM): 1.82
reporter gene assay signal, mean (Figure 3d) ([2]; IL-1alpha 1559.53 pg/ml, inhibitor 50uM): 1.88
reporter gene assay signal, mean (Figure 3d) ([2]; IL-1alpha 3119.06 pg/ml, inhibitor 50uM): 1.91
reporter gene assay signal, mean (Figure 3d) ([2]; IL-1alpha 6238.12 pg/ml, inhibitor 50uM): 1.96
reporter gene assay signal, mean (Figure 3d) ([2]; IL-1alpha 12476.2 pg/ml, inhibitor 50uM): 1.97
reporter gene assay signal, mean (Figure 3d) ([2]; IL-1alpha 24952.5 pg/ml, inhibitor 50uM): 2.03
reporter gene assay signal, mean (Figure 3d) ([2]; IL-1alpha 49905 pg/ml, inhibitor 50uM): 2.01

O=C1Nc2cc(C(F)(F)F)ccc2[C@@]1(O)c1cc(Cl)ccc1O [Compound (R)-1]
binding to hIL-1β by protein-observed NMR (IL-1β): only enantiomer (S)-1 showed binding to the protein

anakinra: IL-1R1 antagonist [reference compound]
effect on hIL-1α driven IL-6 release [3]: could block the release of IL-6
Mean OD (OD 450nm) ([3]; hu IL-1A 0 pg/mL): 0.042
Mean OD (OD 450nm) ([3]; hu IL-1A 40 pg/mL): 0.05
Mean OD (OD 450nm) ([3]; hu IL-1A 80 pg/mL): 0.061
Mean OD (OD 450nm) ([3]; hu IL-1A 120 pg/mL): 0.067
Mean OD (OD 450nm) ([3]; hu IL-1A 160 pg/mL): 0.073
Mean OD (OD 450nm) ([3]; hu IL-1A 200 pg/mL): 0.103
IL-1alpha (mean, SD): mean readout (IL-6 release) ([3]; hu IL-1a 0 pg/mL): 0
IL-1alpha (mean, SD): mean readout (IL-6 release) ([3]; hu IL-1a 40 pg/mL): 0
IL-1alpha (mean, SD): mean readout (IL-6 release) ([3]; hu IL-1a 80 pg/mL): 0
IL-1alpha (mean, SD): mean readout (IL-6 release) ([3]; hu IL-1a 120 pg/mL): 0
IL-1alpha (mean, SD): mean readout (IL-6 release) ([3]; hu IL-1a 160 pg/mL): 0
IL-1alpha (mean, SD): mean readout (IL-6 release) ([3]; hu IL-1a 200 pg/mL): 3.7
reporter gene assay signal, mean (Figure 3d) ([1]; IL-1beta 3.04596 pg/ml, inhibitor 3nM): 0.06
reporter gene assay signal, mean (Figure 3d) ([1]; IL-1beta 6.09192 pg/ml, inhibitor 3nM): 0.06
reporter gene assay signal, mean (Figure 3d) ([1]; IL-1beta 12.1838 pg/ml, inhibitor 3nM): 0.06
reporter gene assay signal, mean (Figure 3d) ([1]; IL-1beta 24.3677 pg/ml, inhibitor 3nM): 0.06
reporter gene assay signal, mean (Figure 3d) ([1]; IL-1beta 48.7353 pg/ml, inhibitor 3nM): 0.06
reporter gene assay signal, mean (Figure 3d) ([1]; IL-1beta 97.4707 pg/ml, inhibitor 3nM): 0.07
reporter gene assay signal, mean (Figure 3d) ([1]; IL-1beta 194.941 pg/ml, inhibitor 3nM): 0.08
reporter gene assay signal, mean (Figure 3d) ([1]; IL-1beta 389.883 pg/ml, inhibitor 3nM): 0.09
reporter gene assay signal, mean (Figure 3d) ([1]; IL-1beta 779.766 pg/ml, inhibitor 3nM): 0.17
reporter gene assay signal, mean (Figure 3d) ([1]; IL-1beta 1559.53 pg/ml, inhibitor 3nM): 0.37
reporter gene assay signal, mean (Figure 3d) ([1]; IL-1beta 3119.06 pg/ml, inhibitor 3nM): 0.68
reporter gene assay signal, mean (Figure 3d) ([1]; IL-1beta 6238.12 pg/ml, inhibitor 3nM): 1.15
reporter gene assay signal, mean (Figure 3d) ([1]; IL-1beta 12476.2 pg/ml, inhibitor 3nM): 1.43
reporter gene assay signal, mean (Figure 3d) ([1]; IL-1beta 24952.5 pg/ml, inhibitor 3nM): 1.66
reporter gene assay signal, mean (Figure 3d) ([1]; IL-1beta 49905 pg/ml, inhibitor 3nM): 1.81
block of hIL-1β driven IL-6 release [4]: could block the release of IL-6
Mean OD (OD 450nm) ([4]; hu IL-1b 0 pg/mL): 0.034
IL-1beta (mean, SD): mean readout (IL-6 release) ([4]; hu IL-1b 0 pg/mL): 0
Mean OD (OD 450nm) ([4]; hu IL-1b 40 pg/mL): 0.047
IL-1beta (mean, SD): mean readout (IL-6 release) ([4]; hu IL-1b 40 pg/mL): 0
Mean OD (OD 450nm) ([4]; hu IL-1b 80 pg/mL): 0.079
IL-1beta (mean, SD): mean readout (IL-6 release) ([4]; hu IL-1b 80 pg/mL): 0
Mean OD (OD 450nm) ([4]; hu IL-1b 120 pg/mL): 0.102
IL-1beta (mean, SD): mean readout (IL-6 release) ([4]; hu IL-1b 120 pg/mL): 0
Mean OD (OD 450nm) ([4]; hu IL-1b 160 pg/mL): 0.157
IL-1beta (mean, SD): mean readout (IL-6 release) ([4]; hu IL-1b 160 pg/mL): 404.5
Mean OD (OD 450nm) ([4]; hu IL-1b 200 pg/mL): 0.162
IL-1beta (mean, SD): mean readout (IL-6 release) ([4]; hu IL-1b 200 pg/mL): 439.1
reporter gene assay signal, mean (Figure 3d) ([2]; IL-1alpha 3.04596 pg/ml, inhibitor 3nM): 0.06
reporter gene assay signal, mean (Figure 3d) ([2]; IL-1alpha 6.09192 pg/ml, inhibitor 3nM): 0.06
reporter gene assay signal, mean (Figure 3d) ([2]; IL-1alpha 12.1838 pg/ml, inhibitor 3nM): 0.06
reporter gene assay signal, mean (Figure 3d) ([2]; IL-1alpha 24.3677 pg/ml, inhibitor 3nM): 0.06
reporter gene assay signal, mean (Figure 3d) ([2]; IL-1alpha 48.7353 pg/ml, inhibitor 3nM): 0.06
reporter gene assay signal, mean (Figure 3d) ([2]; IL-1alpha 97.4707 pg/ml, inhibitor 3nM): 0.06
reporter gene assay signal, mean (Figure 3d) ([2]; IL-1alpha 194.941 pg/ml, inhibitor 3nM): 0.07
reporter gene assay signal, mean (Figure 3d) ([2]; IL-1alpha 389.883 pg/ml, inhibitor 3nM): 0.08
reporter gene assay signal, mean (Figure 3d) ([2]; IL-1alpha 779.766 pg/ml, inhibitor 3nM): 0.09
reporter gene assay signal, mean (Figure 3d) ([2]; IL-1alpha 1559.53 pg/ml, inhibitor 3nM): 0.15
reporter gene assay signal, mean (Figure 3d) ([2]; IL-1alpha 3119.06 pg/ml, inhibitor 3nM): 0.24
reporter gene assay signal, mean (Figure 3d) ([2]; IL-1alpha 6238.12 pg/ml, inhibitor 3nM): 0.46
reporter gene assay signal, mean (Figure 3d) ([2]; IL-1alpha 12476.2 pg/ml, inhibitor 3nM): 0.84
reporter gene assay signal, mean (Figure 3d) ([2]; IL-1alpha 24952.5 pg/ml, inhibitor 3nM): 1.11
reporter gene assay signal, mean (Figure 3d) ([2]; IL-1alpha 49905 pg/ml, inhibitor 3nM): 1.47
